Reference: patent US5108916A, “Process for stereoselectively hydrolyzing, transesterifying or esterifying with immobilized isozyme of lipase from Candida rugosa” (priority 1989, dated 1992)
Values joined by “and” are separate entries in the source; they are usually repeats but may differ in a detail not shown here. Equal values may be shown once. Read-outs that look alike come from different tables or passages of the source.

What was measured:
Lipase MY = test: Two phase Lipase MY hydrolysis of HPPA-Me in organic solvent/water mixtures; assay type: biochemical, Candida rugosa
Protocol: A. 75% organic solvent/25% aqueous buffer--Fifty milligrams of R,S-HPPA-Me was combined in 10 ml Scintillation vial with 7.5 ml of organic solvent, 2.5 ml of 50 mM phosphate buffer pH 6.0, and 5 mg Lipase MY. The reactions were placed on shaker and shaken for a period of 0-43 hours with samples being taken at various times.
B. 25% organic solvent/75% aqueous buffer--Fifty milligrams of R,S-HPPA-Me was combined, in 10 ml Scintillation vial with 2.5 ml of organic solvent, 7.5 ml 50mM phosphate buffer (pH 6.8), and 5 mg Lipase MY. The reactions were shaken for a period of 0-143 hours with samples being taken at various time points.
The data in Table 2 represents the % conversion and % R-HPPA produced using the indicated organic solvents in a two-phase system wherein 75% […] of the total vehicle (solvent) was water and the balance (25%) was organic solvents.

CSC-2 = test: Effect of additives and solvents on hydrolysis of ketoprofen monoglyceride by CSC-2; assay type: biochemical, Candida rugosa
Protocol: Hydrolysis of ketoprofen-monoglyceride (50mg) was carried out in various DMF-100mM (NH4)H2 PO4 buffer (pH 5.5) mixtures. In each flask a solution of ketoprofen monoglyceride (50mg) in DMF (200ul) was added. DMF was added followed by 100mM (NH4)H2 PO4 buffer. […] After 22 hours, 2%, 5%, and 10% DMF samples were acidified, extracted with CHCl3 (2×10ml) and analyzed. The other samples were analyzed directly as in Example 18. The acid produced decreases with increasing amount of DMF.
Small amounts of DMF were added to the reaction mixture to increase the solubility of KPG. In all cases 100mM ammonium phosphate buffer (pH 5.5) was used and 2% (v/v) detergents were added and the total volume was 10ml.
The buffer reaction (entry #2 in the table) contained enzyme in buffer (2 ml) and the buffer only (entry #1 in the table) reaction contained no enzyme.
The presence of a surfactant like Tween increases the solubility o lipophilic compounds in water. […] Tween 80 was added to make 1% and 2% solution (v/v). Bovine serum albumin (BSA) (10mg) was added to each of two flasks. A solution of 50mg of ketoprofen monoglyceride in 200ul DMF was added to each. After 20 hours at 250 rpm and 35° C. the reaction mixtures were acidified, extracted and analyzed by the usual HPLC procedure as in Example 18.
Various surfactants were used at 2% of the reaction volume to determine their effect on the enzymatic reaction involving the conversion of ketoprofen monoglyceride (KPG) to ketoprofen (KP). […] Flasks were covered with parafilm and incubated in a 35° C. water bath at 250 rpm, typically overnight. Reactions were stopped by acidification, extracted with CHCl3 (2×10 ml). The %acid and %ee were determined by the method of Example 18. It is to be noted that Hydrophile-Lipophile Balance (HLB) values have no apparent bearing on the ability of the surfactant to enhance the conversion of KPG to KP.
75 mg of KPG (in the absence of DMF) was individually weighed into 50 ml Erlenmeyer flasks. […] 9 ml of 100 mM (NH4)H2 PO4, pH 5.5 buffer was added, and the flasks were placed into a 35° C., 250 rpm water bath incubator for 20 hours. The reactions were acidified, extracted with CHCl3 and examined by HPLC as in Example 18. The %ee was determined as per Example 18.
Various amounts of oleic acid or its esters were added, and the reactions stopped at the times indicated, acidified, extracted with CHCl3 and analyzed as in Example 18.
An experiment was performed as in Example 41, but using 100, 200 and 500 ul of olive oil to determine if it would enhance the rate of conversion of KPG to KP. […] After 20 hours, all reactions were acidified, extracted with CHCl3 and analyzed by HPLC as in Example 18. The results are given below:
50 mg of KPG was weighed into Erlenmeyer flasks. […] Flasks were incubated at 35° C., 250 rpm for 23 hours. The reactions were stopped by acidification, extracted with CHCl3, and analyzed by HPLC as in Example 18. The additive is listed along with its percentage composition of glycerides of oleic acid.
To determine the problems associated with having oleic acid or oleate. esters in the reaction media, the following experiment was performed. […] Flasks were placed in a 35° C. incubator at 250 rpm, and the reactions were sampled by taking 200 ul aliquots at various time points. These aliquots were analyzed by HPLC (ODS-3 RAC column, CH3 OH: 10 mM (NH4)H2 PO4 (60:40) eluant, 4 ml/min, 254 nm detection) to determine the course of reaction. When approximately 40% acid was produced, the reactions were stopped by placing the flasks in the -70° C. freezer. Two extraction procedures were utilized to determine the best method of isolating S-Ketoprofen free of oleic acid. The first (listed as Extraction Procedure I in the following table) involved first making the solution basic (pH 10) with NaOH, then extracting with hexane, then CHCl3.

[1] = Conversion of ketoprofen esters in organic solvent/oleic acid media; assay type: biochemical
Protocol: To optimize the organic solvent used in the presence of oleic acid a variety of organic solvents were used, along with a variety of ketoprofen esters. In this experiment, 50 mg of ketoprofen esters were weighed into flasks, along with 1 ml of oleic acid and 9 ml of an organic solvent. The flasks were capped and incubated at 35° C., 250 rpm, for 10-26 hours before stopping the reaction by first adding 4 ml CHCl3 to solubilize the substrates and products, then filtering through a 0.2 um Gelman Nylaflo filter. Samples were then diluted in methanol and analyzed by HPLC as in Example 18. The experiment was also performed using 200 ul of oleic acid and 10ml buffer, which was acidified, extracted with CHCl3 and analyzed by HPLC as above.
One ml of oleic acid was added, as was 9 ml of buffer (100 mM (NH4)H2 PO4, pH 5.5) or organic solvent. Flasks were placed into a 35° C. incubator and shaken at 250 rpm for 13 hours. Reaction was stopped by adding 5 ml CHCl3 to solubilize the organic material and filtering the solutions using 0.2 um Gelman Nylaflo membranes to remove the enzyme. Samples were analyzed on an ODS-3 RAC column using CH3 OH:10 mM (NH4)H2PO4 (60:40) as eluant, flow rate 4 ml/min, and detection at 254 nm. %ee was determined by the resolution of diastereomeric amides on the above HPLC system, as per Example 18.

[2] = solvent/buffer 1:1 two phase, 26 hours
[3] = solvent/buffer 1:1 two phase, 26 hours, buffer = 100
[4] = Buffer 10 ml, OA 200 ul, enzyme not named in Example 55
[5] = Hexane 9 ml, OA 1 ml, 10-26 hours
[6] = Hexane 9 ml, OA 1 ml, * stopped at 10 Hr
[7] = Isooctane 9 ml, OA 1 ml, * stopped at 10 Hr
[8] = KPG 50 mg, 100 mg CSC-2 on silica (279-SD-1), 9 ml solvent (or buffer)/1 ml oleic acid, 13 hours

SMILES: ClC(Cl)(Cl)Cl [carbon tetrachloride]
- % R (Lipase MY; solvent 25%, 2.7 hr): 79%
- Conversion (ester/acid) (Lipase MY; solvent 25%, 2.7 hr): 58%
- % R (Lipase MY; solvent 75%, 2.7 hr): 76%
- Conversion (ester/acid) (Lipase MY; solvent 75%, 2.7 hr): 61%
- EE of S-acid (CSC-2; [2]): 95%
- Relative Rate (CSC-2; [3]): 48

SMILES: CC(C(=O)OCCO)c1cccc(C(=O)c2ccccc2)c1 (stereo not drawn) [Ethylene Glycol Ester, ketoprofen ethylene glycol]
- % ee ([1]; Buffer 10 ml, OA 200 ul): 98%
- % Acid [1, 4]: 21%
- % Acid ([1]; CHCl3 9 ml, OA 1 ml): 0%
- % Acid [1, 5]: 29%
- % ee [1, 6]: 95%
- % Acid ([1]; Isooctane 9 ml, OA 1 ml): 47%
- % ee [1, 7]: 98%
- % Acid ([1]; Toluene 9 ml, OA 1 ml): 0%

SMILES: CC(C)CC(C)(C)C [Isooctane]
- % Acid ([1]; KPEG 50 mg, as E212): 48%
- % ee S-acid ([1]; KPEG, as E212): 97%
- % Acid [1, 8]: 39%
- % ee S-acid ([1]; KPG, as E212): 98%
- EE of S-acid (CSC-2; [2]): 96%
- Relative Rate (CSC-2; [3]): 214

SMILES: CC(C)O [2-propanol]
- % R (Lipase MY; solvent 25%, 43 hr): 0%
- Conversion (ester/acid) (Lipase MY; solvent 25%, 43 hr): 0%
- % R (Lipase MY; solvent 75%, 43 hr): 0%
- Conversion (ester/acid) (Lipase MY; solvent 75%, 43 hr): 0%

SMILES: COC(=O)C(C)c1cccc(C(=O)c2ccccc2)c1 (stereo not drawn) [Methyl ester]
- % ee ([1]; Buffer 10 ml, OA 200 ul): 96%
- % Acid [1, 4]: 2%
- % Acid ([1]; CHCl3 9 ml, OA 1 ml): 0%
- % Acid [1, 5]: 0.8%
- % Acid ([1]; Isooctane 9 ml, OA 1 ml): 2%
- % ee [1, 7]: 93%
- % Acid ([1]; Toluene 9 ml, OA 1 ml): 0%

SMILES: CC(C)=O [acetone]
- % R (Lipase MY): 0%
- Conversion (ester/acid) (Lipase MY): 0%

SMILES: c1ccc2c(c1)CCCC2 [1,2,3,4-Tetrahydronapthalene]
- % Acid ([1]; KPEG 50 mg, as E212): 1%
- % ee S-acid ([1]; KPEG, as E212): 1%
- % Acid [1, 8]: 2%
- % ee S-acid ([1]; KPG, as E212): 68%
- EE of S-acid (CSC-2; [2]): 85%
- Relative Rate (CSC-2; [3]): 136

SMILES: CC(C(=O)OCCOCCO)c1cccc(C(=O)c2ccccc2)c1 (stereo not drawn) [Diethylene glycol ester, Diethylene Glycol Ester of Ketoprofen]
- % ee ([1]; Buffer 10 ml, OA 200 ul): 30%
- % Acid [1, 4]: 32%
- % Acid [1, 5]: 56%
- % ee [1, 6]: 13%
- % Acid ([1]; Isooctane 9 ml, OA 1 ml): 60%
- % ee [1, 7]: 17%

SMILES: CC(C(=O)OCCCl)c1cccc(C(=O)c2ccccc2)c1 (stereo not drawn) [2-Chloroethyl Ester, 2-chloroethyl ester of ketoprofen]
- % ee ([1]; Buffer 10 ml, OA 200 ul): 96%
- % Acid [1, 4]: 18%
- % Acid ([1]; CHCl3 9 ml, OA 1 ml): 2%
- % ee ([1]; CHCl3 9 ml, OA 1 ml): 3%
- % Acid [1, 5]: 7%
- % ee [1, 6]: 92%
- % Acid ([1]; Isooctane 9 ml, OA 1 ml): 18%
- % ee [1, 7]: 97%
- % Acid ([1]; Toluene 9 ml, OA 1 ml): 1%
- % ee ([1]; Toluene 9 ml, OA 1 ml): < 1%

SMILES: C1=CCCCC1 [Cyclohexene]
- % Acid ([1]; KPEG 50 mg, as E212): 3%
- % ee S-acid ([1]; KPEG, as E212): 52%
- % Acid [1, 8]: 12%
- % ee S-acid ([1]; KPG, as E212): 94%
- EE of S-acid (CSC-2; [2]): 89%
- Relative Rate (CSC-2; [3]): 146

SMILES: C1=CCCCCCC1 [Cyclooctene]
- % Acid ([1]; KPEG 50 mg, as E212): 16%
- % ee S-acid ([1]; KPEG, as E212): 92%
- % Acid [1, 8]: 38%
- % ee S-acid ([1]; KPG, as E212): 98%
- EE of S-acid (CSC-2; [2]): 95%
- Relative Rate (CSC-2; [3]): 387

SMILES: CCCCCC [Hexane]
- % Acid [1]: 12% and 16%
- % ee S-acid [1]: 94% and 87%
- EE of S-acid (CSC-2): 93%
- Relative Rate (CSC-2; pH 5.5, 1560 min): 80

SMILES: CC(Cl)(Cl)Cl [1,1,1-Trichloroethane]
- % Acid ([1]; KPEG 50 mg, as E212): 0%
- % ee S-acid ([1]; KPEG, as E212): 0%
- % Acid [1, 8]: 1%
- % ee S-acid ([1]; KPG, as E212): 0%
- EE of S-acid (CSC-2; [2]): 75%
- Relative Rate (CSC-2; [3]): 25

SMILES: CC(C(=O)OCC(O)CO)c1cccc(C(=O)c2ccccc2)c1 (stereo not drawn) [Monoglyceride Ester, ketoprofen monoglyceride]
- % ee ([1]; Buffer 10 ml, OA 200 ul): 96%
- % Acid [1, 4]: 26%
- % Acid ([1]; CHCl3 9 ml, OA 1 ml): 0%
- % Acid [1, 5]: 47%
- % ee [1, 6]: 97%
- % Acid ([1]; Isooctane 9 ml, OA 1 ml): 31%
- % ee [1, 7]: 96%
- % Acid ([1]; Toluene 9 ml, OA 1 ml): 0%

SMILES: BrCCBr [1,2-dibromoethane]
- % R (Lipase MY; solvent 25%, 43 hr): 73%
- Conversion (ester/acid) (Lipase MY; solvent 25%, 43 hr): 33%
- % R (Lipase MY; solvent 75%, 43 hr): 57%
- Conversion (ester/acid) (Lipase MY; solvent 75%, 43 hr): 23%

SMILES: Fc1ccccc1 [fluorobenzene]
- % R (Lipase MY; solvent 25%, 5.3 hr): 95%
- Conversion (ester/acid) (Lipase MY; solvent 25%, 5.3 hr): 40%
- % R (Lipase MY; solvent 75%, 5.3 hr): 86%
- Conversion (ester/acid) (Lipase MY; solvent 75%, 5.3 hr): 29%

SMILES: CCO [ethyl alcohol]
- Conversion (ester/acid) (Lipase MY): 0%
- % R (Lipase MY; solvent 25%, 43 hr): 0%
- % R (Lipase MY; solvent 75%, 43 hr): 0%
